In patent US11591323B2, “Muscarinic agonists as non-steroidal and non-opioid analgesics and methods of use thereof” (Barry University, priority 2019, dated 2023):
Values joined by “and” are separate entries in the source; they are usually repeats but may differ in a detail not shown here. Equal entries are not always repeated. Where two headings read alike, the source gives them in different places.

Legend:
Set-up in all cases: host or cells: CHO cells, stably transfected
M4 muscarinic receptor = target: T1, M4 muscarinic receptor (Homo sapiens, UniProt P08173); experiment: inhibition of forskolin-stimulated cAMP, M4 CHO cells (M4Gi); assay type: cell-based; details: for Emax: CHO, read-out: E′MAX; for Kd: read-out: pKA (converted); for EC50: read-out: pEC50 (converted)
T1 sequence (P08173 1-479): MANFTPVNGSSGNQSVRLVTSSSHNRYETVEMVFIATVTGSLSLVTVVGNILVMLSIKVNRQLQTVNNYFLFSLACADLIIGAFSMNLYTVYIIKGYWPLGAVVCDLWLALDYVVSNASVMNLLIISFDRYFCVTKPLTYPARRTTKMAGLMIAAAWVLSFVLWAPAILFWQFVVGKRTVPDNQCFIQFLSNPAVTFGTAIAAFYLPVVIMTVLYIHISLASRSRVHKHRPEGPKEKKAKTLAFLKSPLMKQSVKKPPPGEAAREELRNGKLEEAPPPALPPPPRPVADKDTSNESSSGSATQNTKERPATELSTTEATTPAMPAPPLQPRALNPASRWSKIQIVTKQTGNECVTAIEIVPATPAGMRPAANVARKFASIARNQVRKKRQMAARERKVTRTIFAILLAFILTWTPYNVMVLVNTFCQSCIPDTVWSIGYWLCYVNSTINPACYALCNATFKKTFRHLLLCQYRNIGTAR

M2 muscarinic receptor = target: T2, M2 muscarinic receptor (Homo sapiens, UniProt P08172); experiment: [3H]NMS competition binding, M2 CHO membranes
T2 sequence (P08172 1-466): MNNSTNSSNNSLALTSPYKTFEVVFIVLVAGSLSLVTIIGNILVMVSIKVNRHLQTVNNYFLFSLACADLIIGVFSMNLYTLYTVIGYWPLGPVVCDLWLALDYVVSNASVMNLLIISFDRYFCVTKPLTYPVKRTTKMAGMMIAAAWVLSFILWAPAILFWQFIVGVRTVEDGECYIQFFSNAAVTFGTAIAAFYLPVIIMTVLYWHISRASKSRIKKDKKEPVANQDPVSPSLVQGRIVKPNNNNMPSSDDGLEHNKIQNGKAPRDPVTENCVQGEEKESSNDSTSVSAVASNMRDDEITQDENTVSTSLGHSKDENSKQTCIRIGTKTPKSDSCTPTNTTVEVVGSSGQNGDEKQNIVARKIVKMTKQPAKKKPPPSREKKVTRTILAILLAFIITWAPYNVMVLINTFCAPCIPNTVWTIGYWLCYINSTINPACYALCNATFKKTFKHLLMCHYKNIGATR

M3 muscarinic receptor = M3 muscarinic receptor (Homo sapiens, UniProt P20309); experiment: [3H]NMS competition binding, M3 CHO membranes; details: competition with 1 nM [3H]NMS; read-out: Inhibition constants (Ki) as negative logarithms, M3 (converted)
M5 muscarinic receptor = target: T3, M5 muscarinic receptor (Homo sapiens, UniProt P08912); experiment: accumulation of IPX, M5 CHO cells (M5Gq); assay type: cell-based; details: for EC50: read-out: pEC50 (converted); for τ: operational efficacy; for Kd: operational model, read-out: pKA (converted); for Δlog(τ/KA): to carbachol
T3 sequence (P08912 1-532): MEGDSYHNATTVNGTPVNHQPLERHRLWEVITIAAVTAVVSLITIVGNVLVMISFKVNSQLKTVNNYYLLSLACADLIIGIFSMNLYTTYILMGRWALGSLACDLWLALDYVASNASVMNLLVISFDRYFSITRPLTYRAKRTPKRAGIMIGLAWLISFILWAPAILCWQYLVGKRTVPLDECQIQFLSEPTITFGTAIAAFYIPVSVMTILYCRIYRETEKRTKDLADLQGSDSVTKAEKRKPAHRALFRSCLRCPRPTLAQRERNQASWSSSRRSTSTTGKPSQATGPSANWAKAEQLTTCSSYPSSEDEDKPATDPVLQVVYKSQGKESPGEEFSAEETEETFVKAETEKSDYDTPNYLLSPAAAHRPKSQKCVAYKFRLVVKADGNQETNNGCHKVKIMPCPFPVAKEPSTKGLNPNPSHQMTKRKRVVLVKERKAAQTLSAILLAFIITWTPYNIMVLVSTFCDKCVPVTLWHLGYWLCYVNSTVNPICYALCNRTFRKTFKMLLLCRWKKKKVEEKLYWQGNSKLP

[1] = M4 (↓cAMP), preferential response, Table 7
[2] = M4 (↓cAMP), preferential response, Table 7, operational efficacy
[3] = M4 (↓cAMP), preferential response, to carbachol, Tables 2, 3, 7
[4] = M4Gi (↓cAMP), Table 8, to carbachol
[5] = competition with 1 nM [3H]NMS, read-out: Inhibition constants (Ki) as negative logarithms, M2 (converted)
[6] = M4 (↓cAMP), preferential response, Table 7, operational model
[7] = M4 (↓cAMP), preferential response, relative to carbachol, Tables 2, 3, 7
[8] = M5 (↑IPX), preferential response, Table 7
[9] = M5 (↑IPX), preferential response, relative to carbachol, Tables 2, 3, 7
[10] = M5 (↑IPX), preferential response, Tables 2, 3, 7

Sequence of M3 muscarinic receptor (P20309 whole entry): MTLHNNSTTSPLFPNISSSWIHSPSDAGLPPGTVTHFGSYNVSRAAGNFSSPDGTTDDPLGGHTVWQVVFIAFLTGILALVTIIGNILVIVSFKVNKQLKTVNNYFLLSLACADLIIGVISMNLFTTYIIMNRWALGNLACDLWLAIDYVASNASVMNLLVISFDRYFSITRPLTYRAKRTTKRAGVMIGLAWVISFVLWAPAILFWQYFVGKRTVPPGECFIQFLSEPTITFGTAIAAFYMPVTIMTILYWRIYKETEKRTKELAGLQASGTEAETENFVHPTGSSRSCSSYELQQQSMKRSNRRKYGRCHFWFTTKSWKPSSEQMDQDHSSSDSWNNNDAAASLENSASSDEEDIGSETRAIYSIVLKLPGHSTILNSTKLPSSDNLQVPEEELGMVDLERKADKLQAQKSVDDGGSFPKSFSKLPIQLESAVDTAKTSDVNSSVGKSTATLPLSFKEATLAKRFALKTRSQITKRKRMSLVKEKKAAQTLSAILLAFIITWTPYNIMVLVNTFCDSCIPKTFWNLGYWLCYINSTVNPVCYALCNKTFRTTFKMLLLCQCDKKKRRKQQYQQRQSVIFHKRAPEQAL

Row | Ki (M2 muscarinic receptor; [5]) | Ki (M3 muscarinic receptor) | Emax (M4 muscarinic receptor; [1]) | Kd (M4 muscarinic receptor; [6]) | EC50 (M4 muscarinic receptor; [1]) | RAi (M4 muscarinic receptor; [7]) | E′MAX (M5 muscarinic receptor; [8]) | EC50 (M5 muscarinic receptor; [8]) | RAi (M5 muscarinic receptor; [9]) | τ (M5 muscarinic receptor; [8]) | Kd (M5 muscarinic receptor; [8]) | Δlog(τ/KA) (M5 muscarinic receptor; [10]) | Structure (SMILES) | τ (M4 muscarinic receptor; [2]) | Δlog(τ/KA) (M4 muscarinic receptor; [3]) | E′MAX (M4 muscarinic receptor; M4Gi (↓cAMP), Table 8) | τ (M4 muscarinic receptor; M4Gi (↓cAMP), Table 8) | Δlog(τ/KA) (M4 muscarinic receptor; [4]) | other results
1 |  |  |  |  |  |  |  |  |  |  |  |  | C[N+](C)(C)CCOC(N)=O [carbachol, reference compound] | 1.41 ± 0.08 | 0 | 55 ± 2 % inhibition | 1.4 ± 0.1 | 0 | E′MAX (M4 muscarinic receptor; [1]): 55 ± 2 % inhibition
2 | 10.2 µM | 22.9 µM | 25 ± 2% | 12.6 µM | 9.77 µM | 0.0020 ± 0.0002 | 1.7 ± 0.1 fold over basal | 15.1 µM | 0.0009 ± 0.0005 | 0.04 ± 0.01 | 15.8 µM | 3.04 ± 0.66 | Cc1ccc(CN2CC=CCC2)s1.Cl [Compound 6B, 1-[(5-methylthiophen-2-yl)methyl]-1,2,3,6-tetrahydropyridin-1-ium chloride] | 0.39 ± 0.04 | 2.51 ± 0.20 |  |  |  | Ki (M2 muscarinic receptor; high-affinity fraction of binding to M2, read-out: high affinity binding): ~0.03 µM
3 | 10 µM | 14.1 µM | 13 ± 1% | 2.51 µM | 2.14 µM | 0.0041 ± 0.005 | 1.36 ± 0.08 fold over basal | 7.59 µM | 0.0009 ± 0.0003 | 0.02 ± 0.01 | 7.94 µM | 3.03 ± 0.95 | Brc1ccc(CN2CC=CCC2)s1.Cl [Compound 6C, 1-[(5-bromothiophen-2-yl)methyl]-1,2,3,6-tetrahydropyridin-1-ium chloride] | 0.38 ± 0.04 | 2.13 ± 0.12 |  |  |  | 

Row | Structure (SMILES) | Ki (M2 muscarinic receptor; [5]) | Ki (M3 muscarinic receptor) | Emax (M4 muscarinic receptor; [1]) | Kd (M4 muscarinic receptor; [6]) | EC50 (M4 muscarinic receptor; [1]) | RAi (M4 muscarinic receptor; [7]) | E′MAX (M5 muscarinic receptor; [8]) | EC50 (M5 muscarinic receptor; [8]) | RAi (M5 muscarinic receptor; [9]) | τ (M5 muscarinic receptor; [8]) | Kd (M5 muscarinic receptor; [8]) | Δlog(τ/KA) (M5 muscarinic receptor; [10]) | τ (M4 muscarinic receptor; [2]) | Δlog(τ/KA) (M4 muscarinic receptor; [3]) | E′MAX (M4 muscarinic receptor; M4Gi (↓cAMP), Table 8) | τ (M4 muscarinic receptor; M4Gi (↓cAMP), Table 8) | Δlog(τ/KA) (M4 muscarinic receptor; [4]) | other results
4 | C[N+]1(Cc2cccs2)CC=CCC1.[I-] (stereo not shown) [Compound 7A, 1-methyl-1-[(thiophen-2-yl)methyl]-1,2,3,6-tetrahydropyridin-1-ium iodide] | 7.94 µM | 7.94 µM | 39 ± 2% | 3.16 µM | 1.78 µM | 0.0209 ± 0.0011 | 1.28 ± 0.05 fold over basal | 7.94 µM | 0.0007 ± 0.0002 and 0.0007 ± 0.0001 |  |  |  | 0.78 ± 0.08 | 1.58 ± 0.22 | 39 ± 2 % inhibition | 0.78 ± 0.08 | 1.58 ± 0.22 | RAi (M4 muscarinic receptor; M4Gi (↓cAMP), Table 8, relative to carbachol): 0.0209 ± 0.0011; EC50 (M4 muscarinic receptor; M4Gi (↓cAMP), Table 8): 1.78 µM; Kd (M4 muscarinic receptor; M4Gi (↓cAMP), Table 8): 3.16 µM; E′MAX (M5 muscarinic receptor; M5Gq (↑IPX), Table 8): 1.26 ± 0.05 fold over basal; RAi (M5 muscarinic receptor; M5Gq (↑IPX), Table 8, relative to carbachol): 0.0006 ± 0.0002; EC50 (M5 muscarinic receptor; M5Gq (↑IPX), Table 8): 7.94 µM
